Measured values taken from PubChem BioAssay (NCI).
Values joined by “and” are separate entries in the source; they are usually repeats but may differ in a detail not shown here. Equal values may be shown once.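 Following 48 hours of exposure in 96-well plates, responses at five concentrations were used to interpolate endpoints linearly. GI50 = concentration required for 50% inhibition of growth. At the TGI there is no net growth.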

Tests used:
Test in all cases: NCI anticancer screen, dose series, 48 h
OVCAR-5 ovarian = system: OVCAR-5 ovarian
UO-31 renal = system: UO-31 renal
COLO 205 colon = system: COLO 205 colon
A549 NSCLC = system: A549 NSCLC
OVCAR-8 ovarian = system: OVCAR-8 ovarian
SK-OV-3 ovarian = system: SK-OV-3 ovarian
NCI-H460 lung = system: NCI-H460 lung
ACHN renal = system: ACHN renal
UACC-257 melanoma = system: UACC-257 melanoma
SF-539 CNS = system: SF-539 CNS

Structure (SMILES) | GI50 (OVCAR-5 ovarian) | TGI (OVCAR-5 ovarian) | GI50 (UO-31 renal) | TGI (UO-31 renal) | GI50 (COLO 205 colon) | TGI (COLO 205 colon) | GI50 (A549 NSCLC) | TGI (A549 NSCLC) | GI50 (OVCAR-8 ovarian) | TGI (OVCAR-8 ovarian) | GI50 (SK-OV-3 ovarian) | TGI (SK-OV-3 ovarian) | GI50 (NCI-H460 lung) | TGI (NCI-H460 lung) | GI50 (ACHN renal) | TGI (ACHN renal) | GI50 (UACC-257 melanoma) | TGI (UACC-257 melanoma) | GI50 (SF-539 CNS) | TGI (SF-539 CNS)
COc1cc([C@@H]2c3cc4c(cc3[C@H](SC(=N)N)[C@H]3COC(=O)[C@H]23)OCO4)cc(OC)c1OC | 0.638 µM | > 100 µM | 2.6 µM | > 71.2 µM | 0.198 µM | 0.422 µM | 0.305 µM | > 100 µM | 0.348 µM | > 100 µM | 0.201 µM | > 33 µM | 0.294 µM | 56.1 µM | 0.41 µM | > 84.2 µM | 15.1 µM | > 100 µM | 0.144 µM | > 100 µM
O=[N+]([O-])c1cccnc1S(=O)(=O)c1ccccc1 |  | 29.4 µM |  | 14 µM |  | 11 µM |  | 40.4 µM |  | 26.8 µM |  | 44.7 µM |  | 27.8 µM |  | 11.4 µM |  | 33.4 µM |  | 24 µM
Nc1nc(Cl)c2ncn(Cc3ccc(C45CC6CC(CC(C6)C4)C5)c(OCc4cc(F)c(F)cc4F)c3)c2n1 | 13.4 µM | 33.9 µM | 4.54 µM | 19.4 µM | 4.22 µM | 22 µM | 1.94 µM | 5.89 µM | 2.94 µM | 14.2 µM | 6.02 µM | 42.2 µM | 2.39 µM | 5.89 µM | 3.4 µM | 13.7 µM | 0.494 µM | 3.97 µM | 4.18 µM | 14.8 µM
CN(C)CCCOc1ccc(NC2=C(Cl)C(=O)C(Nc3ccc(OCCCN(C)C)cc3)=C(Cl)C2=O)cc1 | 1.69 µM | 3.18 µM | 1.1 µM | 2.44 µM | 0.239 µM | 0.589 µM | 0.731 µM | 2.12 µM | 0.446 µM | 1.04 µM | 1.82 µM | 3.34 µM | 0.872 µM | 2.55 µM | 1.66 µM | 3.02 µM | 0.793 µM | 2.29 µM | 1.79 µM | 3.19 µM
CCc1c(OC(C)=O)c2c(NC3OC(COC(C)=O)C(OC(C)=O)C(OC(C)=O)C3OC(C)=O)nc(SC)nc2oc1=O (centres undefined) |  | > 100 µM |  | > 100 µM |  | > 100 µM |  | > 100 µM |  | > 100 µM |  | > 100 µM |  | > 100 µM |  | > 100 µM |  | > 100 µM |  | > 100 µM
COc1ccccc1/C=C(\NC(=O)c1ccccc1)c1nc2ccc(Cl)cc2[nH]1 |  | > 100 µM |  | 46.6 µM |  | 38.8 µM |  | 70.2 µM |  | 73 µM |  | 84 µM |  | > 100 µM |  | 67.8 µM |  | > 100 µM |  | > 100 µM
CCCCCCCCCCCCCCCC(=O)OCC1OC(n2cc(F)c(=O)[nH]c2=O)C(NC(=O)OCc2ccccc2)C(O)C1O (centres undefined) |  | 39.8 µM |  | 35.2 µM |  | 34 µM |  | 38.5 µM |  | 37.2 µM |  | 66 µM |  | 38.9 µM |  | > 100 µM |  |  |  | 30.9 µM
C=C1C(=O)O[C@@H]2C[C@@]3(C)[C@H](O)CCC(=C)[C@@H]3C[C@H]12 |  | 20.5 µM |  | 23.2 µM |  | 7.09 µM |  | 70.5 µM |  | 23.3 µM |  | 52.6 µM |  | 19.7 µM |  | 27.8 µM |  |  |  | 23.6 µM
COc1ccc(/C=C/C(=O)c2c(-c3ccccc3)nn(C)c(=O)c2N2CCCCC2)cc1 |  |  |  | 34.7 µM |  | 44 µM |  | > 100 µM |  | > 100 µM |  | 77.6 µM |  | 49.4 µM |  | > 100 µM |  |  |  | 37.8 µM
O=C([O-])c1ccc([I+]c2ccccc2)cc1 |  | > 100 µM |  | > 100 µM |  | > 100 µM |  | > 100 µM |  | > 100 µM |  | > 100 µM |  | > 100 µM |  |  |  | > 100 µM |  | > 100 µM
Cc1ccc(-n2nc(C(OC3OC(CO)C(O)C(O)C3O)C(O)CO)c3nc4cc(C)c(C)cc4nc32)cc1 (centres undefined) |  | > 100 µM |  | > 100 µM |  |  |  |  |  | > 100 µM |  | > 100 µM |  | > 100 µM |  | > 100 µM |  | > 100 µM |  | > 100 µM
O=C(O)c1ccccc1C(=O)c1ccco1 |  | > 100 µM |  | > 100 µM |  | > 100 µM |  | > 100 µM |  | > 100 µM |  |  |  | > 100 µM |  | > 100 µM |  | > 100 µM |  | > 100 µM
CCOC(=O)C[C@@]12CCCN[C@]1(C)CCc1ccccc12 |  | > 100 µM |  | > 100 µM |  |  |  | > 100 µM |  | > 100 µM |  | > 100 µM |  | > 100 µM |  | > 100 µM |  |  |  | > 100 µM
CCCCCCCCCCCCCC(=O)O[C@H]1CC[C@H](NC(=O)[C@H](OC)[C@H](O)[C@@H](O)[C@H](O)/C=C/C(C)C)C(=O)N(C)C1 | > 23.8 µM | 15 µM and > 23.8 µM | 0.0283 µM | 15 µM and 8.93 µM |  |  | 0.00238 µM | 15 µM and 4.49 µM | 0.00238 µM | 15 µM and 3.59 µM | 0.0194 µM | 15 µM and > 23.8 µM | 0.00238 µM | 0.371 µM and 3.01 µM | 0.0306 µM | 15 µM and > 23.8 µM | 0.00238 µM | 15 µM and 13 µM | 0.0126 µM | 15 µM and > 23.8 µM
Cc1ccc(S(=O)(=O)Nc2ccccc2C(C)(C)C)cc1 |  | > 100 µM |  | 47.3 µM |  |  |  | > 100 µM |  | > 100 µM |  | 81.3 µM |  | 42.2 µM |  | > 100 µM |  | 35.4 µM |  | 33.9 µM
O=C1C=CC2(O)OCC3C=C4O[C@@H]5OC6(CCCCC6)O[C@@H]5C4[C@@H]2[C@@H]13 (some centres undefined) |  | > 100 µM |  | 37.3 µM |  | 30.9 µM |  | > 100 µM |  | 77.2 µM |  | > 100 µM |  | > 100 µM |  | 88.4 µM |  | 35 µM |  | 
CCOC(=O)C1=C(C)N(NC(N)=O)C2(N)N(NC(N)=O)C(C)=C(C(=O)OCC)C12C#N (centres undefined) |  | > 100 µM |  | > 100 µM |  |  |  | > 100 µM |  | > 100 µM |  | > 100 µM |  | > 100 µM |  | > 100 µM |  | > 100 µM |  | > 100 µM
Cc1nc2sccn2c1C(=O)NNC(N)=S |  | > 100 µM |  |  |  | > 100 µM |  | > 100 µM |  | > 100 µM |  | > 100 µM |  | > 100 µM |  | > 100 µM |  | > 100 µM |  | > 100 µM
